From ChEMBL document CHEMBL1201862, “PubChem BioAssay data set” (2004)
Activity calls are given as the source filed them.

Experiments:
[1] = target: Prothrombin (Homo sapiens, UniProt P00734); assay: Thrombin 1536 HTS Dose Response Confirmation. [Related pubchem assays: 1046 (Thrombin 1536 HTS; hits were confirmed in this assay)]; type: functional
[2] = viability of uninfected HEp-2 cells – cell-based, HTS, cytotoxicity control for RSV inhibitor project, dose response (AID 2410); type: functional; details: human respiratory syncytial virus
[3] = cells
[4] = target: T1, Heat shock factor protein 1 (Mus musculus, UniProt P38532); assay: enhancement of HSF1-driven luciferase signal – cell-based, NIH3T3, luminescence, dose retest, confirmation (AID 435004); type: functional;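 further: stress induced by proteasome inhibitor MG132 added 30 min after compound; luciferase reporter driven by HSF1 response element in NIH3T3 cells; actives raise luminescence as potentiators of the MG132 stress response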
T1 sequence (P38532 whole entry): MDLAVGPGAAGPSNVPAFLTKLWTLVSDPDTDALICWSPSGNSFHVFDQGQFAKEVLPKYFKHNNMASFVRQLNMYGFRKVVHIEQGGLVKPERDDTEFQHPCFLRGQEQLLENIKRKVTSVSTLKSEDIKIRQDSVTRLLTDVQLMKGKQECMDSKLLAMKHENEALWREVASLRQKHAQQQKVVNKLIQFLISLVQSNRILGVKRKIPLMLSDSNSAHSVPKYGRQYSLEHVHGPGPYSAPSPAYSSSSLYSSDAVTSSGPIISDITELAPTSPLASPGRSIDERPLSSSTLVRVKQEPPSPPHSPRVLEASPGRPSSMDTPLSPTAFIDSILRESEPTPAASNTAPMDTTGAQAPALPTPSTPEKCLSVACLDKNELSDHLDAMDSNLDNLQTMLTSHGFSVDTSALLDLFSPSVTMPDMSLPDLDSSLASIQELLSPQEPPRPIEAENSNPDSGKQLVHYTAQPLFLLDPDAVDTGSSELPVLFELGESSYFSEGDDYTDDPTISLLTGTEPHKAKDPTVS

[5] = viability loss in THP-1 monocytes – THP-1 cells, cytotoxicity control for Vif-APOBEC3G degradation inhibitor project, dose response (AID 1117359); type: functional; details: THP-1
[6] = target: T1, Heat shock factor protein 1; assay: decrease of HSF1-responsive luciferase luminescence – cell-based, NIH3T3, dose retest, confirmation (AID 2382); type: functional;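 further: NIH3T3 fibroblasts with HSF1-driven luciferase reporter stressed by proteasome inhibitor MG132; luminescence from HSF1-driven luciferase expression after 8 hours of MG132 stress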
[7] = viability of PTEN-deleted HCT116 cells – cell-based, HCT116 PTEN knockout, dose response (AID 1047); type: functional;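 further: HCT116 colon tumor cells with PTEN knocked out; cells exposed to compound for 60 hours before readout; potency for loss of cell viability measured by luminescence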
[8] = viability of HCT116 lacking mutant beta-catenin – cell-based, human colon tumor, dose response (AID 1045); type: functional;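 further: HCT116 colon tumor cells with beta catenin knocked out; cells exposed to compound for 60 hours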
[9] = system: INS1; assay: INS-1E survival protection against cytokine death – cell-based, luminescence, retest, dose response (AID 449756); type: functional; details: Rattus norvegicus;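 further: cell death triggered by IL-1 beta plus TNF-alpha plus IFN-gamma mixture; protective hits raise ATP signal compared with cytokine alone wells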
[10] = Luminescence Cell-Based Dose Retest to Confirm Inhibitors of Cancer Stem Cells. [Related pubchem assays (depositor defined):AID2717, AID2721]; type: functional; details: Homo sapiens
[11] = target: T2, Replicative DNA helicase DnaB (Mycobacterium tuberculosis, UniProt P9WMR3); assay: DnaB intein splicing inhibitors, dose response, biochemical, cell-free fluorescence (AID 449749); type: functional
T2 sequence (P9WMR3 whole entry): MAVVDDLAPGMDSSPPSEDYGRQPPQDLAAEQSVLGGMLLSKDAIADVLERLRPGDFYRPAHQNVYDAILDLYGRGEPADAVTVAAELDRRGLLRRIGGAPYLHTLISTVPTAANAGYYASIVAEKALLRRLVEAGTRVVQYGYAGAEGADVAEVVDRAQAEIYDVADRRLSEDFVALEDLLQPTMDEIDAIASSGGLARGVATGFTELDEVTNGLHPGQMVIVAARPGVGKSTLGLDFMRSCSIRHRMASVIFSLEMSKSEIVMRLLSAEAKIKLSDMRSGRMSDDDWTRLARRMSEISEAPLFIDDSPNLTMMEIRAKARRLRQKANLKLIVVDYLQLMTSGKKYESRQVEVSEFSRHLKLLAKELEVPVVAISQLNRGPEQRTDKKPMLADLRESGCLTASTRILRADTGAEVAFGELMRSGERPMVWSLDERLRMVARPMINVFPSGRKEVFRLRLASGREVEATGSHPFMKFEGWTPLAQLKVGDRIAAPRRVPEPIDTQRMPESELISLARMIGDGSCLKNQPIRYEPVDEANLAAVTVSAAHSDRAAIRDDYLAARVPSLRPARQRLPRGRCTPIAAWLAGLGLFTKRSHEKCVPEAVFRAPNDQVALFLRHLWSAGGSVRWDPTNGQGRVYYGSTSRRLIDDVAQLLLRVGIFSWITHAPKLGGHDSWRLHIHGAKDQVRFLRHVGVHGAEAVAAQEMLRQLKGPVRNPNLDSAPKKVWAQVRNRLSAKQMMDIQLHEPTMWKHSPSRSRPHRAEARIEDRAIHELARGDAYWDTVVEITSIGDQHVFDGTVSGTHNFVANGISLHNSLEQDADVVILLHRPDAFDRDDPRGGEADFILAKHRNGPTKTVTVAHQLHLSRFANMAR

[12] = target: T3, Protein RecA (Mycobacterium tuberculosis, UniProt P9WHJ3); assay: Fluorescence Cell-Free Homogeneous Dose Retest to Identify Inhibitors of RecA-Intein Splicing Activity. [Related pubchem assays (depositor defined):AID2097, AID2223, AID489010, AID492950]; type: functional
T3 sequence (P9WHJ3 whole entry): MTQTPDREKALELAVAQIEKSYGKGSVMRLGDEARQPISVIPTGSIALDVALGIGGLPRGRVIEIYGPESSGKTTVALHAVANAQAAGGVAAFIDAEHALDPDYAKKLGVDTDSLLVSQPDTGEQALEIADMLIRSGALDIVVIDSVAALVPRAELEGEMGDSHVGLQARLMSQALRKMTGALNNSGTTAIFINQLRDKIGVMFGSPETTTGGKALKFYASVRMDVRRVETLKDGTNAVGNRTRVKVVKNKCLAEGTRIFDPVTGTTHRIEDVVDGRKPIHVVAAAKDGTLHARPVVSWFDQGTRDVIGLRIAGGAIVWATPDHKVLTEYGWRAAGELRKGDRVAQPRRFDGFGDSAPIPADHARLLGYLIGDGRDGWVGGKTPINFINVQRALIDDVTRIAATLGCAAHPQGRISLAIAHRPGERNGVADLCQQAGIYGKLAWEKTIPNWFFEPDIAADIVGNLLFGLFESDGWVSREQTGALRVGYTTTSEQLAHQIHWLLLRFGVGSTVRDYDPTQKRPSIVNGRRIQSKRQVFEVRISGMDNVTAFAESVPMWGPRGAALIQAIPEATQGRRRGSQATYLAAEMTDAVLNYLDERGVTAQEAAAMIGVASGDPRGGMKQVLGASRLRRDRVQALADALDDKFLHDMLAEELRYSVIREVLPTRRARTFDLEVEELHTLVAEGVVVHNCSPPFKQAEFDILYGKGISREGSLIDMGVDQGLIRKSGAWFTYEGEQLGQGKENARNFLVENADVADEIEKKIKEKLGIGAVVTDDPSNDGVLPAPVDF

[13] = target: FAD-linked sulfhydryl oxidase ALR (Homo sapiens, UniProt P55789); assay: ALR-catalysed DTT oxidation blockers – biochemical, H2O2 detection, luminescence, cherry-pick, dose response (AID 493248)
Sequence of FAD-linked sulfhydryl oxidase ALR (P55789 whole entry): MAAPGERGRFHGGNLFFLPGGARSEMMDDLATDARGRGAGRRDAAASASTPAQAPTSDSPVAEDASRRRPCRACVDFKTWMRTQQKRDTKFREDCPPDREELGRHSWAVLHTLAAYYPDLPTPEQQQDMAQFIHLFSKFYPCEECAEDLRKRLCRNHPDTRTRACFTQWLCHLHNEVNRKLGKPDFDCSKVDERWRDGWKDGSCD

[14] = target: T4, Caspase-6 (Homo sapiens, UniProt P55212); assay: inhibition of CASP6 peptide cleavage – biochemical, VEID-R110 fluorescence, cherry-pick, dose response (AID 720632)
T4 sequence (P55212 whole entry): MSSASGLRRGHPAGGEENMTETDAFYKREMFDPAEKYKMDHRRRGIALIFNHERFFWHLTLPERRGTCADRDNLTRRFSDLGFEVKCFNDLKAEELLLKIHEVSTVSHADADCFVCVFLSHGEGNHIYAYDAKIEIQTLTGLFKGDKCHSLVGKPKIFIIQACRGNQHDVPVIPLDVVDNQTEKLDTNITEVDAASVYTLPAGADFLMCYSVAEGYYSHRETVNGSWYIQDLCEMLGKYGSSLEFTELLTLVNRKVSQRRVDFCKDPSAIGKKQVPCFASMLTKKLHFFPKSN

[15] = target: T5, Histone-lysine N-methyltransferase NSD2 (Homo sapiens, UniProt O96028); type: biochemical
T5 sequence (O96028 whole entry): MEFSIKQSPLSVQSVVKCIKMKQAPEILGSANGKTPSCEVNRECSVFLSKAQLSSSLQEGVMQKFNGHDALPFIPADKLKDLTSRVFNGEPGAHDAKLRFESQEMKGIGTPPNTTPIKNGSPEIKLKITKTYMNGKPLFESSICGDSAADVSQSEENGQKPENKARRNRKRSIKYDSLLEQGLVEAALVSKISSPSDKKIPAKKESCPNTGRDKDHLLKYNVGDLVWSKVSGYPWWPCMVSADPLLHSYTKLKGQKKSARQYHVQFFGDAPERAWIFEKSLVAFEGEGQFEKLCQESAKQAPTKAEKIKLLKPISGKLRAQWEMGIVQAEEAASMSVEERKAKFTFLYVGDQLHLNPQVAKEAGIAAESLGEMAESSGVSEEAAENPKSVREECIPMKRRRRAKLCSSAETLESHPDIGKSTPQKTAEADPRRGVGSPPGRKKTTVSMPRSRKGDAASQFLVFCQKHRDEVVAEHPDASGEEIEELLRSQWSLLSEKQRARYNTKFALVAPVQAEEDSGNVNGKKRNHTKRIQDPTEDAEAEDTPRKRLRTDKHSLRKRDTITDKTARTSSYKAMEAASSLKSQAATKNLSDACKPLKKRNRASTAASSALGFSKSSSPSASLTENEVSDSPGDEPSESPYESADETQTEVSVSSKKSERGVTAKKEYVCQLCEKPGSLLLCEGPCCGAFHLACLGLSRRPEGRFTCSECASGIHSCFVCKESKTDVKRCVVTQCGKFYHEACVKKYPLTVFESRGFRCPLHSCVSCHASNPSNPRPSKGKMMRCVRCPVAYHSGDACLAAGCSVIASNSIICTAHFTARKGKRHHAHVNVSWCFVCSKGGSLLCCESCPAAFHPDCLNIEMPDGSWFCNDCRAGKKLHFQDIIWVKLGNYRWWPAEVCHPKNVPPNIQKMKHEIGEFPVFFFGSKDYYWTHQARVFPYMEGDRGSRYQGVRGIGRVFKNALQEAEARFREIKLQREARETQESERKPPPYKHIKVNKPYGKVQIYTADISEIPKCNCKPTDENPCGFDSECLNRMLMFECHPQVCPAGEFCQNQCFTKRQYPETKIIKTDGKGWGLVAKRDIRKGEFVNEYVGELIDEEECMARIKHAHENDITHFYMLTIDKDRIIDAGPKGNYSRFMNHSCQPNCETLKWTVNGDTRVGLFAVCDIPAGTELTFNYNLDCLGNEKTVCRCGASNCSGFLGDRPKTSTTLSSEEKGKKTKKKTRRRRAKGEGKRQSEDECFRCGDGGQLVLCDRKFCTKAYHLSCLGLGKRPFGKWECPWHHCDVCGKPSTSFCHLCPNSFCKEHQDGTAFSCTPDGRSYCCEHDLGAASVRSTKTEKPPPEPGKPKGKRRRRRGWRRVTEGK

[16] = target: Estrogen receptor beta (Homo sapiens, UniProt Q92731);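 further: recombinant ER-beta bound to coactivator SRC1 peptide in presence of estradiol agonist; inhibitors block coactivator peptide binding and lower the FRET signal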
Sequence of Estrogen receptor beta (Q92731 whole entry): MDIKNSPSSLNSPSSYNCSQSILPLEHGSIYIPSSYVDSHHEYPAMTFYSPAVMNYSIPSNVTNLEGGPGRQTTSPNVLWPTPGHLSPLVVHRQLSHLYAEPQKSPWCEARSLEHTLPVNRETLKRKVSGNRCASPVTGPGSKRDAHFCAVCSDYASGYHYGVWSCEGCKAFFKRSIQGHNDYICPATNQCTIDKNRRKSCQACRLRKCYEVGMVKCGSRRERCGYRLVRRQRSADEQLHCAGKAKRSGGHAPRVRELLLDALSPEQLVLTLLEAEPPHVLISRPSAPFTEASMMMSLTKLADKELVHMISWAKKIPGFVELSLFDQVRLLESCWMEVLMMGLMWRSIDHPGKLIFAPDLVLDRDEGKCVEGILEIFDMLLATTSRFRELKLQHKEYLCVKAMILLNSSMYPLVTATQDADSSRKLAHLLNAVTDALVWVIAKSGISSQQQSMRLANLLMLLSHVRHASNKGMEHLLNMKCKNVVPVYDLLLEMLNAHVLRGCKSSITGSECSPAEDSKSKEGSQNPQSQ

[17] = cells; remark: listed apart in the source
[18] = Trypanosoma cruzi growth suppression in host cells – NIH3T3 host cells, beta-gal luminescence, confirmation (AID 2044); type: functional, cell-based;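 further: intracellular parasites grown in NIH/3T3 mouse fibroblasts as host cells; luminescent beta-galactosidase reporter signal from transgenic T. cruzi replicating inside host cells; inhibitors lower the luminescence signal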
[19] = NIH3T3 cell viability loss – ATP luminescence, mouse fibroblasts, counter-screen, dose response (AID 2010); type: functional, cell-based;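 further: cells exposed to compound for about 90 hours before reading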
[20] = OVCAR-3 cell viability loss – plate reader, dry powder samples, PAX8 inhibitor project, dose response (AID 743044); type: functional, cell-based
[21] = target: Paired box protein Pax-8 (Homo sapiens, UniProt Q06710); assay: PAX8 transcriptional activity inhibition in RMG-I – RMG-I cells, luciferase, cherry-pick, dose response (AID 687027); type: functional, cell-based;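 further: luciferase reporter driven by Pax8 target thyroperoxidase promoter measured by SteadyGlo luminescence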
Sequence of Paired box protein Pax-8 (Q06710 whole entry): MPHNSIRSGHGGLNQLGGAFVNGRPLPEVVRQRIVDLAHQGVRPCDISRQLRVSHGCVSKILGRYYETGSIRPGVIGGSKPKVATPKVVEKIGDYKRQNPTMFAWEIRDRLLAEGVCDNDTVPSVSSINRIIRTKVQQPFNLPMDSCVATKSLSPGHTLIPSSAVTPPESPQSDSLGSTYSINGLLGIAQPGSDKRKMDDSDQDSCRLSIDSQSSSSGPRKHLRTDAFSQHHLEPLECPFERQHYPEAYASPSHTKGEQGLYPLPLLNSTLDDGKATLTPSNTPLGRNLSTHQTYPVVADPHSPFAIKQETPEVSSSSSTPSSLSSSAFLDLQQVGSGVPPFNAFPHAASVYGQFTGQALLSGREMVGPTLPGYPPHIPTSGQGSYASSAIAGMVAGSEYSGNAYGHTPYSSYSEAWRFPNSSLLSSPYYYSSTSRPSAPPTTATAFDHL

## COc1ccccc1N=C(S)N(Cc1ccco1)Cc1cc2cc(C)ccc2nc1O
[1]
  IC50: > 50 µM (not active)

## CC(C)NC(=O)CSc1nc(-c2ccccc2)cs1
[1]
  IC50: > 50 µM (not active)

## Cc1ccc(N(CCCCN2C(=O)c3ccccc3C2=O)C(=O)c2cccc([N+](=O)[O-])c2)cc1
[2]
  CC50: > 50 µM (active)
[3]
  IC50: 15.8 µM (active)
[4]
  EC50: 33.2 µM (active)

## CCOc1ccccc1NC(=O)Cn1c(-c2ccc(Cl)cc2)noc1=O
[5]
  CC50: > 40 µM (active)
[6]
  EC50: > 195 µM (not active)

## O=C(/C=C/c1ccc(Cl)cc1)c1cccnc1
[7]
  EC50: 1.75 µM (active)
[8]
  EC50: 0.793 µM (active)

## O=C(NCc1cccnc1)/C(=C/c1ccc(-c2cccc(Cl)c2)o1)S(=O)(=O)c1ccccc1
[7]
  EC50: 2.02 µM (active)
[8]
  EC50: 2.02 µM (active)
[9]
  AC50: 6.06 µM (active)
[10]
  AC50: 1.73 µM (active)

## CNC(=O)/C(C#N)=C/c1c(N(Cc2ccccc2)Cc2ccccc2)nc2c(C)cccn2c1=O
[11]
  AC50: > 120 µM (inactive)
[2]
  CC50: 10.1 µM (active)
[3]
  IC50: 11.3 µM (active)
[12]
  EC50: 104 µM (active)

## CCc1ccc(NC2CC(=O)N(c3ccc(OC)cc3OC)C2=O)cc1 (centres undefined)
[1]
  IC50: > 50 µM (not active)

## CCc1ccc2cccc3c2c1N=CN3C
[13]
  AC50: 0.24 µM (active)
[14]
  AC50: 6.79 µM (active)
[15]
  AC50: 7.21 µM (active)

## Cn1nc(CC(=O)Nc2ncc(Br)s2)c2ccccc2c1=O
[16]
  IC50: > 50 µM (not active)

## C=C(C)C1CC=C(CN2CCN(Cc3ccccc3)CC2)CC1 (centres undefined)
[17]
  EC50: 0.189 µM (active)
[18]
  EC50: < 0.1 µM (active)
[19]
  EC50: > 60 µM (not active)

## Cc1nc2c(=O)[nH]c(=S)[nH]c2nc1O
[14]
  AC50: 6.58 µM (active)
[15]
  AC50: 16.2 µM (active)

## C[C@@H]1CN([C@H](C)CO)C(=O)c2cc(NS(=O)(=O)c3cccs3)ccc2O[C@@H](C)CCCCO[C@H]1CN(C)Cc1ccc(Cl)c(Cl)c1
[20]
  AC50: 46.5 µM (active)
[21]
  AC50: 9.2 µM (active)
